Earlier results on one compound are cited in patent US5846971A, “Oral antifungal composition” (Schering Corporation, priority 1997, dated 1998).

In data set [1] the test system is Aspergillis. To be noted: in suspensions.
The test system of data set [2] is Candida. Conditions: in suspensions.
Data set [3] concerns Cryptococcus. Conditions: in suspensions.

As to `CC[C@@H]([C@H](C)O)n1ncn(-c2ccc(N3CCN(c4ccc(OC[C@@H]5CO[C@@](Cn6cncn6)(c6ccc(F)cc6F)C5)cc4)CC3)cc2)c1=O` [the antifungal compound, (-)-(2R-cis)-4-[4-[4-[4-[[-5-(2,4-difluorophenyl)-tetrahydro-5-(1H-1,2,4-triazol-1-ylmethyl)furan-3-yl]methoxy]phenyl]-1-piperazinyl]phenyl]-2,-4-dihydro-2-[(S)-1-ethyl-2(S)-hydroxypropyl]-3H-1,2,4-triazol-3-one], the water solubility result is recorded as “extremely low water solubility”. Further, the antifungal activity entry in data set [1] is recorded as “potent antifungal activity”. Besides, the antifungal activity entry in data set [2] was “potent antifungal activity”. Also, the antifungal activity entry in data set [3] is given as “potent antifungal activity”.
